The term melting point denotes the temperature of the solid-liquid transition. Usually IC50 stands for the concentration that gives 50% inhibition. A higher IC50 goes with lower potency.

Melting point and IC50 data for five compounds are collected here from PMC9610606, “Design, Synthesis, In Silico Testing, and In Vitro Evaluation of Thiazolidinone-Based Benzothiazole Derivatives as Inhibitors of α-Amylase and α-Glucosidase” (Pharmaceuticals, 2022).

One series deals with α-glucosidase (Saccharomyces cerevisiae, UniProt P53341). Type of series: biochemical. As to the method:
(§1) Biological profile of all the candidates were obtained through experimental-based analysis, as described in the inhibitory assay (5.3 and 5.4). […]
5.4 α-glucosidase inhibitory assay protocol
10 µl of the α-glucosidase enzyme, 20 µl of test samples (10-50 µg/ml) and 50 µl, of 0.1M […]
nitrophenyl—D-g lucopy ranoside solution was fu rther added as a substrate and again incubated for 20 min at 37 °C. Sodium carbonate (50 µl of 0.1M) was added to terminate the reaction. P- […]
conditions by omitting test samples. All the experiments were carried out in triplicates. The percentage inhibition was calculated by the formula.
% Inhibition = [(Ac – As) /Ac] × 100 Ac-absorbance for control, As-absorbance for standard. […]
(§2) PDB format. The process was further carried out in auto dock in which polar hydrogen and Kollman and Gasteiger charges were add ed to protein. Selected ligand was also prepared done by using torsion tree to detect root. Moreover, configuration file was generated along with X, Y and Z axis save both ligand and protein in PDBQT format in the same docking folder. At the end

A further series deals with T1, α-amylase (Sus scrofa, UniProt P00690).
T1 sequence (P00690 16-511): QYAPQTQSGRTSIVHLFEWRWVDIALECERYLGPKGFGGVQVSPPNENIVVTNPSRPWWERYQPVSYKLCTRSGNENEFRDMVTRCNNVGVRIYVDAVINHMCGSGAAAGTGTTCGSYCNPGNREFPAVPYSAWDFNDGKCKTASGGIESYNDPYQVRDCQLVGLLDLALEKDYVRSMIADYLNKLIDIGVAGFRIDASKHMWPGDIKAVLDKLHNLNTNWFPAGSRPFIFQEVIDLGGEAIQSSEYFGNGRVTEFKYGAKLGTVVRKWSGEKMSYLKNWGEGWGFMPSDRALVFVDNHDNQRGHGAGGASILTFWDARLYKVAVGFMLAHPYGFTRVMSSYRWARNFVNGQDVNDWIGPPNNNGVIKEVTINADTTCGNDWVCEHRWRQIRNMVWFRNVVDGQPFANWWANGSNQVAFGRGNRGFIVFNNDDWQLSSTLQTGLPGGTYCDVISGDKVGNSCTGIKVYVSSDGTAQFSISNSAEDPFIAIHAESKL
The series is described as follows: In vitro α-amylase inhibitory assay. Type of series: biochemical. As to the method:
as §1
absorbance was recorded using an ELISA microplate reader at 540 nm. […]
the standard. All the reactions were carried out in triplicates. The reaction mixture, devoid of the test sample, served as control. […]
as §2

Chain of α-glucosidase (P53341 whole entry): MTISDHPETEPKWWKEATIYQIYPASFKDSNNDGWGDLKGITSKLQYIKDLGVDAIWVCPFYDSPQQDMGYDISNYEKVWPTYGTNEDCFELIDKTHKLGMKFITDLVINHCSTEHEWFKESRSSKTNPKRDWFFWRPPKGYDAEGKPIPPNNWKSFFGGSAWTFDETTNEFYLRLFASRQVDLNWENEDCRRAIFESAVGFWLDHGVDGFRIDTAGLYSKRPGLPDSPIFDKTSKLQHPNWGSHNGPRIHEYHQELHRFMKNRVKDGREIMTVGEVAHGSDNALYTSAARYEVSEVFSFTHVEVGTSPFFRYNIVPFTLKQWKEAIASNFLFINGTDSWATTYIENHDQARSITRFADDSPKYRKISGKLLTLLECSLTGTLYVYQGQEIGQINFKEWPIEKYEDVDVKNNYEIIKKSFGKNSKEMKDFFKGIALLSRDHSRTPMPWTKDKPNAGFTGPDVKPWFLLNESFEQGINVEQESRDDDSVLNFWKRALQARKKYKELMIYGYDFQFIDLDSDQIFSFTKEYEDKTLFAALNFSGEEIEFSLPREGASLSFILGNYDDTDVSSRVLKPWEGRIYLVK

Compound `N#Cc1cccc(-c2c(/C=C3\S/C(=N\c4nccs4)NC3=O)ccc3ncsc23)c1` [Compound 15, 3-(6-((Z)-((Z)-4-oxo-2-(thiazol-2-ylimino)thiazolidin-5-ylidene)methyl)benzo[d]thiazol-7-yl)benzonitrile] registered a melting point of 243 to 244 °C.

Turning to “(2Z,5Z)-5-((5-nitrobenzo [d]thiazol-6-yl) methylene)-2-(thiazol-2-ylimino)thiazolidin-4-one [Compound 1]”, the IC50 against α-glucosidase stood at 8.8 ± 0.2 µM; against α-amylase, 7.7 ± 0.2 µM.

Consider `O=C1N/C(=N/c2nccs2)S/C1=C\c1ccc2ncsc2c1-c1cccc([N+](=O)[O-])c1Cl` [Compound 9, (2Z,5Z)-5-((7-(2-chloro-3-nitrophenyl)benzo[d]thiazol-6-yl)methylene)-2-(thiazol-2-ylimino)thiazolidin-4-one], for which the melting point lay in the range of 241 to 242 °C.

The compound `CN(C)c1cc(/C=C2\S/C(=N\c3nccs3)NC2=O)cc2scnc12` [Compound 10, (2Z,5Z)-5-((4-(dimethylamino)benzo[d]thiazol-6-yl)methylene)-2-(thiazol-2-ylimino)thiazolidin-4-one] gave a melting point of 227 to 228 °C.

As for “(2Z,5Z)-5-((7-hydroxy-4-(trifluoromethyl)benzo[d]thiazol-6-yl)methylene)-2-(thiazol-2-ylimino)thiazolidin-4-one [Compound 6]”, the IC50 came out at 3.2 ± 0.7 µM at α-glucosidase and 2.1 ± 0.7 µM at α-amylase.
